Target: RpfF (Xanthomonas campestris, UniProt Q7CLS3)
Experiment: HPLC and LC-MS of product formed by purified His-tagged RpfF
Assay type: biochemical
Conditions: formed from 3-hydroxydodecanoyl-ACP (dehydratase and thioesterase); Tris-HCl pH 7.5, ATP, Mg2+, Vibrio harveyi AasS; 37 °C, 30 min

Sequence of RpfF (Q7CLS3 entry or part of it): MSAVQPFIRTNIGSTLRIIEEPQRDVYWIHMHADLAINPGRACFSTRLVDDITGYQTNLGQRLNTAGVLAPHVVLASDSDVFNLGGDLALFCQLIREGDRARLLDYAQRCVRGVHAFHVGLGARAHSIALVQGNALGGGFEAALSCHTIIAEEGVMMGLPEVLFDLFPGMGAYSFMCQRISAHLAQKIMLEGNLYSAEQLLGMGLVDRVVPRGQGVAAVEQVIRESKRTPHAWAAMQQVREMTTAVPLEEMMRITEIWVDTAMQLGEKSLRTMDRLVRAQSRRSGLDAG

CCCCCCCCC/C=C\C(=O)O [BDSF, cis-2-dodecenoic acid]
HPLC and LC-MS of product formed by purified His-tagged RpfF: detected in the reaction mixture containing RpfF and 3-OH-C12:0-ACP

— PMC4542539, “The Multiple DSF-family QS Signals are Synthesized from Carbohydrate and Branched-chain Amino Acids via the FAS Elongation Cycle” (Scientific Reports, 2015)
